Entries after “also recorded” stand apart in the source; their conditions may differ.
Assays:
[1] = system: mouse mid-jejunal closed loops; assay: Closed mid-jejunal loop fluid absorption in mice; assay type: in vivo; conditions: 10 µM intraluminal, 30 min
Protocol: (§1) Female CD1 mice (age 8-10 weeks) were given free access to Pedialyte (per liter: Na^+ 45 mEq, Cl^- 35 mEq, K^+ 20 mEq, dextrose 25 g; Abbott, Abbot Park, IL) but not solid food for 48 h before experiments. Mice were treated with 500 µL mineral oil once a day rectally (last dose 12 h before surgeries) during this period to evacuate the colon. Closed intestinal loops were isolated as described. Mice were anesthetized with isoflurane and body temperature was maintained during surgery at 36-38° C. using a heating pad. A small abdominal incision was made to expose the distal colon, and one closed distal colonic loop (length 1.5-2 cm) was isolated with sutures in each mouse. Loops were injected with 100 µL phosphate-buffered saline (PBS, pH: 7.4, in mM: 137 NaCl, 2.7 KCl, 8 Na2HPO4, 1.8 KH2PO4, 1 CaCl2, 0.5 MgCl2) without and with 10 µM Compound A1 and/or 10 µM tenapanor (MedChemExpress, Monmouth Junction, NJ). The abdominal incision was closed with sutures, and mice were allowed to recover from anesthesia. Colonic loops were removed at 0 and 60 min (in separate mice) and loop length and weight were measured to quantify fluid absorption. Luminal fluid was emptied with a syringe and pH was measured immediately using AB15 pH Meter (Thermo Fisher Scientific, South San Francisco, CA). In separate studies, mid-jejunal loops (length 2-3 cm, 3-4 loops per mouse) were isolated as described above, injected with 100 µL PBS without or with 10 µM Compound A1 and/or 10 µM tenapanor, and excised at 0 and 30 min to measure loop length and weight.

NHE3 = molecular target: T1, NHE3 (Homo sapiens, UniProt P48764); conditions: Phase 3, IBS-C, treated group (placebo 18.7 %); cited from earlier work
T1 sequence (P48764 26-834): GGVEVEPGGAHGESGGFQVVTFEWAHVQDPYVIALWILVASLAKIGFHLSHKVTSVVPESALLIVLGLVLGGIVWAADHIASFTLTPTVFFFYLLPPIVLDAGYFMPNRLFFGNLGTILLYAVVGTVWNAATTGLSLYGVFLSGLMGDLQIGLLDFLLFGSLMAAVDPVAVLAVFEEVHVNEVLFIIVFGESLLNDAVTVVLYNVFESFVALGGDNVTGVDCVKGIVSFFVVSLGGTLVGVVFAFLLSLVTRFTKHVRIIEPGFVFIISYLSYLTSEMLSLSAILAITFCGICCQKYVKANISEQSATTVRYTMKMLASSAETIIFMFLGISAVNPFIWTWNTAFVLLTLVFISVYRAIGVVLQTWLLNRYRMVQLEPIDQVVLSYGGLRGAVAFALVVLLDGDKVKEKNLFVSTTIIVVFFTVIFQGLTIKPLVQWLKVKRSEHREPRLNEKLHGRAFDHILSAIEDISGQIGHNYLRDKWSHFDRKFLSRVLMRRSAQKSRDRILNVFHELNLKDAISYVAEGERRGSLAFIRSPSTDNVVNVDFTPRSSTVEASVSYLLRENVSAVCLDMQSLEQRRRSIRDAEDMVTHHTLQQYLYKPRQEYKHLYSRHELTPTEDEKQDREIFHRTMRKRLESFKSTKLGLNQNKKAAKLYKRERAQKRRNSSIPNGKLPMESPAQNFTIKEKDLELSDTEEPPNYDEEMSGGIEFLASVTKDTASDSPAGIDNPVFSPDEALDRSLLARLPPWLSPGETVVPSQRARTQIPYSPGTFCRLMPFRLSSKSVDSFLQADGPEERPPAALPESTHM

[2] = system: loperamide-treated wild-type mice; assay: Loperamide-induced constipation model in wild-type mice; assay type: in vivo; conditions: 5 mg/kg oral gavage 1 hour before loperamide, wild-type mice
Protocol: Female CD1 mice (age 8-10 weeks) were administered loperamide (0.3 mg/kg, intraperitoneally, Sigma-Aldrich) to produce constipation. Compound A1 (DRAinh-A250) (5 mg/kg, in saline containing vehicle (5% DMSO and 10% Kolliphor HS 15; Sigma-Aldrich)), tenapanor (5 mg/kg, in vehicle), both compounds (5 mg/kg each, in vehicle), or vehicle alone were administered by oral gavage 1 hour before loperamide. After loperamide injection, mice were placed individually in metabolic cages with ad libitum access to food and water. Stool samples were collected for 3 h, and total stool weight and number of fecal pellets were quantified. To measure stool water content, stool samples were dried at 80° C. for 24 h and water content was calculated as [wet weight-dry weight]/wet weight. Similar studies were done in cystic fibrosis (CF) mice (ΔF508 homozygous) lacking functional CFTR.
Constipation Model in MiceDRAinh-A260 and DRAinh-A270 were tested in a loperamide-induced constipation model in mice. Female CD1 mice (age 8-10 weeks) were administered loperamide (0.3 mg/kg, intraperitoneally, in 5% ethanol in PBS, 0.1 mg/mL final concentration) to produce constipation and vehicle in control mice. DRAinh-A260 (5 mg/kg, in saline with 5% DMSO and 10% Kolliphor HS 15) or DRAinh-A270 (1, 3 or 10 mg/kg, in PBS with 5% DMSO and 20% (2- hydroxypropyl)-β-cyclodextrin) or vehicle alone were administered by oral gavage 1 hour before loperamide (FIG. 11A). After loperamide injection, mice were placed individually in metabolic cages with free access to food and water. Stool samples were collected for 3 hours, and total stool weight and number of fecal pellets were quantified. To measure stool water content, stool samples were dried at 80° C. for 24 hours and water content was calculated as [wet weight-dry weight]/wet weight.

[3] = system: mouse distal colonic closed loops; assay: Closed distal colonic loop fluid absorption in mice; assay type: in vivo; conditions: 10 µM intraluminal, 60 min
Protocol: as §1
Closed intestinal loop studies in mice were done to study effects of Compound A1 on fluid absorption. […] Changes in luminal pH were also determined as a semi-quantitative measure of slc26a3-facilitated HCO3^- secretion / C1^- absorption, with slc26a3 inhibition predicted to reduce luminal fluid alkalinization. For these experiments, a phosphate-buffered solution (PBS) without HCO3^- / CO2 was used to avoid confounding effects of luminal carbonic anhydrases. […] Administration of the NHE3 (Na^+/H^+ exchanger 3) inhibitor tenapanor had no effect on weight/length ratio or luminal pH in distal colonic loops.

## CN1Cc2c(Cl)cc(Cl)cc2[C@H](c2cccc(S(=O)(=O)NCCOCCOCCNC(=O)NCCCCNC(=O)NCCOCCOCCNS(=O)(=O)c3cccc([C@@H]4CN(C)Cc5c(Cl)cc(Cl)cc54)c3)c2)C1 [tenapanor, reference compound]
[1]
  loop weight/length ratio (fluid absorption), mid-jejunal loops: fluid absorption was abolished; also recorded: blocked absorption in jejunal
  luminal fluid pH, mid-jejunal loops: preventing acidification and producing slight alkalinization
NHE3
  combined pain and stool pattern response rate: 27%
[2]
  three-hour stool weight, number of pellets and stool water content: comparably reduced signs of constipation
[2]; listed as Tenapanor
  three-hour stool weight, number of pellets and stool water content: partially prevented
[3]
  loop weight/length ratio (fluid absorption), distal colonic loops: had no effect
  luminal pH, distal colonic loops: had no effect

Source: patent US20230339878A1, “SLC26A3 INHIBITORS AND USE THEREOF” (THE REGENTS OF THE UNIVERSITY OF CALIFORNIA, priority 2018, published 2023)
